Experimental data taken from publication PMC10535762 (2023).

System: poly A–poly U (pApU, ds-RNA) (RNA, polymer) A/U
Assay: fluorimetric titration, Scatchard fit
Conditions: Na+ (sodium cacodylate, I = 0.05 M), pH 7.0, 25 °C, recalculated for fixed n = 0.2 [bound dye]/[polynucleotide], c(nucleobase), per base

Structure (SMILES)	log Ks (TB-p 5 µM)	log Ks (TB-AA 3 µM)
C#CC[N+](C)(C)c1cc(C)c(B(c2c(C)cccc2C)c2c(C)cc(N(C)C)cc2C)c(C)c1	7.1	
Cc1cccc(C)c1B(c1c(C)cc(N(C)C)cc1C)c1c(C)cc([N+](C)(C)Cc2cn(CC[C@H](NC(=O)OCC3c4ccccc4-c4ccccc43)C(=O)O)nn2)cc1C		6.0
